Source: patent publication US20130029928A1 (priority 2010, published 2013)
Several values for one entry are separate records, joined by “and”; a condition that tells them apart may be missing. Identical values can stand only once. Like-named read-outs stand apart in the source and are kept apart here. Marks after values point to notes of the source that are not given here.

Assays:
[1] = tested on: PC3 (prostate) xenograft tumours; experiment: PC3 xenograft in nude mice; format: in vivo, nude mouse
Method: (§1) A parallel experiment was carried out using the prostate tumour cell line PC3.
(§2) These effects are consistent with a transient effect on the liver associated with mild toxicity and reversible liver enlargement. In rodents, this type of effect is usually due to hepatic PPARα activation associated with peroxisome proliferation.

[2] = PC3 xenograft in nude mice; format: in vivo, nude mouse; conditions: nude, mouse, plasma, intraperitoneal; PC3 model; 25 mg/kg three times weekly; 24 hrs post last dose; Day 29
Method: as §1, §2

MES-SA = experiment: ATP depletion cytotoxicity assay 48 hr; format: cell-based; conditions: Homo sapiens, Study CXR0798, read-out: IC50 1
Method: (§4) The SRB assay was performed according to the method specified by the NIC/NIH. […] Assay replicates were independent in time and up to 4 replicates were performed per cell line.

HT-29 = experiment: SRB cytotoxicity assay 48 hr; format: cell-based, human; conditions: read-out: IC50 Values After 48 Hrs Exposure
Method: as §4

H (chondrosarcoma) = experiment: ATP depletion cytotoxicity assay 48 hr; conditions: H
Method: Assay replicates were independent in time and up to 4 replicates were performed per cell line.
Cells were plated at the optimal plating density for that cell line in 96-well plates and allowed to attach overnight. The next day, the medium was removed and replaced with fresh medium containing the dose ranges of test items. […] There were 3 replicates for each test item concentration.
Cells were plated at the optimal plating density for that cell line in 96-well plates and allowed to attach overnight. The next day, cells were pre-treated with the inhibitors UO126 or LY294002 (see Tables 18 & 20) for 2 hrs, the medium was removed and replaced with fresh medium containing the appropriate dose of the test item. […] Cells that were to be treated with DPQ received no pre-treatment. […] There were 3 replicates for each test item concentration.

[3] = tested on: patients with advanced cancer; experiment: Phase I study CXR1002-001: anti-tumour response; format: in vivo, human
SW1353 = experiment: ATP depletion cytotoxicity assay 48 hr; format: cell-based, human
Method: Following exposure to Test Items, the CellTitre-Glo Luminescent Cell Viability Assay to measure ATP content was performed according to the manufacturer's detailed instructions (Promega Corporation, Technical Bulletin No. 288, and Cell notes, Issue 10, 2004).
Cells were plated at the optimal plating density for that cell line in 96-well plates and allowed to attach overnight. […] Cells were exposed to these compounds in Roswell Park Memorial Institute (RPMI) medium containing 10% Foetal Calf Serum (FCS) and 2 mM Glutamine at 37° C. and 5% CO2 for 48 hours. There were 3 replicates for each test item concentration.
Following exposure to Test Items, the CellTitre-Glo Luminescent Cell Viability Assay to measure ATP content will be performed according to the manufacturer's detailed instructions (Promega Corporation, Technical Bulletin No. 288, and Cell notes, Issue 10, 2004).

[4] = HT-29 xenograft in nude mice; format: in vivo, nude mouse; conditions: nude, mouse, plasma, intraperitoneal, 25 mg/kg; HT-29 model; 24 hrs post last dose; Day 29
Source text: (§3) Animals were inoculated with a tumour cell suspension on each flank and the tumours were allowed to grow for 16 days.
as §2

[5] = tested on: HT-29 (colon adenocarcinoma) tumours; experiment: HT-29 xenograft in nude mice; format: in vivo, nude mouse
Source text: as §3, §2

SMILES: O=C(O)C(F)(F)C(F)(F)C(F)(F)C(F)(F)C(F)(F)C(F)(F)C(F)(F)F [CXR1002]
- effect on tumours ([1]; 5, 15 and 25 mg/kg i.p.): marked anti-tumour effect
- increase in plasma ALT ([1]; PC3-tumour bearing mice): up to 1.8 fold
- Absolute Tumour Volume as a Percentage of Saline Control ([1]; PC3, 25 mg/kg i.p., Day 25): 19.14%
- effect on body weight ([1]; PC3 model): No marked effects on body weight
- liver weight ([1]; PC3 model): increase in liver weight
- Terminal / maximum CXR1002 plasma level ([1]; PC3 model, 25 mg/kg three times weekly, 24 hrs post last dose, Day 29): 281 µM
- increase in plasma AST ([1]; mice bearing PC3 xenografts): up to 3.5 fold
- plasma glucose and triglyceride levels ([1]; tumour-bearing nude mice, PC-3): slight reductions
- concentration at 24 h [2]: 281 µM
- IC50 (MES-SA): > 1000 µM
- IC50 (HT-29): 342 ± 10.6 µM
- IC50 (H (chondrosarcoma); Example 7, 48 hour, CXR1002 0-1 mM, U0126 fixed 10 μM where combined): 817 µM
- IC50 (H (chondrosarcoma); read-out: IC50 1-4 (independent replicates), ATP depletion, 48 hrs): 550 µM and 555 µM and 800 µM
- IC50 (H (chondrosarcoma); read-out: IC50 Mean, ATP depletion, 48 hrs): 635 µM
- On-Study Duration ([3]; 50 mg/week, pancreatic): 35 weeks
- On-Study Duration ([3]; 100 mg/week, colorectal): 20 weeks
- On-Study Duration ([3]; 200 mg/week, anaplastic thyroid, patient remains on study): 22* weeks
- On-Study Duration ([3]; 200 mg/week, cervical, patient remains on study): 22* weeks
- best response ([3]; investigator assessment): stable disease
- duration of stable disease ([3]; one patient with pancreatic cancer): 7 months
- IC50 (SW1353; Homo sapiens, SW1353, 48 h, read-out: IC50 1-4 (independent replicates)): > 1000 µM
- IC50 (SW1353; Homo sapiens, SW1353, 48 h, read-out: IC50 Mean): > 1000 µM
- IC50 (SW1353; read-out: IC50 1-4 (independent replicates), ATP depletion, 48 hrs, SW1353): > 1000 µM
- concentration at 24 h [4]: 277 µM
- effect on tumour volumes ([5]; 25 mg/kg i.p. three times per week for 28 days): anti-tumour effect
- Absolute Tumour Volume as a Percentage of Saline Control ([5]; HT-29, 25 mg/kg i.p. three times per week, Day 29): 49.22%
- effect on body weight ([5]; HT-29 model): No significant compound-dependent effects
- increase in liver weight ([5]; HT-29 model): up to 2.5 fold
- Terminal / maximum CXR1002 plasma level ([5]; HT-29 model, 24 hrs post last dose, Day 29): 277 µM
- increase in plasma AST ([5]; mice bearing HT-29 xenografts): up to 3.5 fold
- plasma ALT levels ([5]; mice bearing HT-29 xenografts): decreased
- plasma glucose and triglyceride levels ([5]; tumour-bearing nude mice, HT-29): slight reductions
